In patent US11076595B2, “1-(n,n-disubstituted carbamoyl) 4-(substituted sulfonyl)triazolin-5-one derivative, 4-(n,n-disubstituted carbamoyl) 1-(substituted sulfonyl)triazolin-5-one derivative, and herbicide containing said derivative as active ingredient” (HOKKO CHEMICAL INDUSTRY CO., LTD., priority 2017, dated 2021):

Experiments:
Assay type in all cases: in vivo
Chenopodium album [1] = test: Test Example 14: herbicidal effect test by foliage treatment in upland field; settings: 7 days after sowing, 120 g/10a, 14 days after treatment
How it was run: (§1)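 Emulsifiable concentrate, water-diluted, is applied post-emergence to 7-day-old sowings in field soil at 120 g active ingredient per 10 are. The weed suppression rate derives from average dry weights versus untreated controls, measured 14 days later.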

crabgrass [2] = test: as above; settings: 7 days after sowing, 120 g/10a, 14 days after treatment
How it was run: as §1

Lindernia pyxidaria [3] = test: Test Example 12: herbicidal effect test by treatment during growing period in paddy field; settings: 120 g/10a; treatment seven days after sowing in flooded paddy pot; assessed 14 days after treatment
How it was run: (§2)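 Weed suppression (%) = (1 − treated/untreated mean dry weight) × 100, scored 14 days after treatment with two replicates per plot. Dose 120 g a.i. per 10 are, as diluted emulsifiable concentrate added dropwise to flooded pots (water about 3 cm) 7 days post-sowing, seeds at 0-1 cm.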

Scirpus juncoides [4] = test: as above; settings: 120 g/10a; treatment seven days after sowing in flooded paddy pot; assessed 14 days after treatment
How it was run: as §2

Monochoria vaginalis [5] = test: as above; settings: 120 g/10a; treatment seven days after sowing in flooded paddy pot; assessed 14 days after treatment
How it was run: as §2

Echinochloa crus-galli [6] = test: as above; settings: 120 g/10a; treatment seven days after sowing in flooded paddy pot; assessed 14 days after treatment
How it was run: as §2

Amaranthus viridis [7] = test: Test Example 14: herbicidal effect test by foliage treatment in upland field; settings: 7 days after sowing, 120 g/10a, 14 days after treatment
How it was run: as §1

Echinochloa crus-galli [8] = test: as above; settings: 7 days after sowing, 120 g/10a, 14 days after treatment
How it was run: as §1

Lindernia pyxidaria [9] = test: Test Example 11: herbicidal effect test by soil treatment in paddy field; settings: 120 g/10a active ingredient, 14 days after treatment
How it was run: (§3)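 Pre-emergence paddy test, 120 g a.i./10 are, emulsifiable concentrate diluted in water and added dropwise to ~3 cm flood water right after sowing (30 seeds/species, 0–1 cm depth, fertilized puddled soil). Greenhouse; 2 replicates; dry-weight suppression (%) vs untreated, day 14.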

Scirpus juncoides [10] = test: as above; settings: 120 g/10a active ingredient, 14 days after treatment
How it was run: as §3

Monochoria vaginalis [11] = test: as above; settings: 120 g/10a active ingredient, 14 days after treatment
How it was run: as §3

Echinochloa crus-galli [12] = test: as above; settings: 120 g/10a active ingredient, 14 days after treatment
How it was run: as §3

Amaranthus viridis [13] = test: Test Example 13: herbicidal effect test by soil treatment in upland field; settings: 120 g/10a, 14 days after treatment
How it was run: (§4)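 Pre-emergence soil spray, 1 d post-sowing; emulsifiable concentrate in water, 100 L/10 are, 120 g a.i./10 are. Pots 36 cm^2, alluvial soil, 20 seeds/species in top 1 cm. n=2; read 14 d; suppression % = (1 − treated/untreated mean dry weight) × 100.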

Chenopodium album [14] = test: as above; settings: 120 g/10a, 14 days after treatment
How it was run: as §4

crabgrass [15] = test: as above; settings: 120 g/10a, 14 days after treatment
How it was run: as §4

Echinochloa crus-galli [16] = test: as above; settings: 120 g/10a, 14 days after treatment
How it was run: as §4

Structure (SMILES)	herbicidal effect, Chenopodium album (Chenopodium album [1]) [%]	herbicidal effect, Crabgrass (crabgrass [2]) [%]	Weed suppression rate (%) Lindemia pyxidaria (Lindernia pyxidaria [3]) [%]	Weed suppression rate (%) Scirpus juncoides (Scirpus juncoides [4]) [%]	Weed suppression rate (%) Monochoria vaginalis (Monochoria vaginalis [5]) [%]	Weed suppression rate (%) Echinochloa crus-galli (Echinochloa crus-galli [6]) [%]	herbicidal effect, Amaranthus viridis (Amaranthus viridis [7]) [%]	herbicidal effect, Echinochloa crus-galli (Echinochloa crus-galli [8]) [%]	Weed suppression rate (%) Lindemia pyxidaria (Lindernia pyxidaria [9]) [%]	Weed suppression rate (%) Scirpus juncoides (Scirpus juncoides [10]) [%]	Weed suppression rate (%) Monochoria vaginalis (Monochoria vaginalis [11]) [%]	Weed suppression rate (%) Echinochloa crus-galli (Echinochloa crus-galli [12]) [%]	herbicidal effect, Amaranthus viridis (Amaranthus viridis [13]) [%]	herbicidal effect, Chenopodium album (Chenopodium album [14]) [%]	herbicidal effect, Crabgrass (crabgrass [15]) [%]	herbicidal effect, Echinochloa crus-galli (Echinochloa crus-galli [16]) [%]
CC(C)N(C(=O)n1cnn(S(=O)(=O)C(C)C)c1=O)c1c(F)cc(F)cc1F [Compound 11-63]	70	100	80	100	100	100	60	100	100	100	100	100	90	90	100	100
CC(C)N(C(=O)n1cnn(S(=O)(=O)C(C)C)c1=O)c1c(F)c(F)cc(F)c1F [Compound 11-64]	60	100	80	100	90	100	60	90	100	100	90	100	60	60	100	100
CC(C)N(C(=O)n1cnn(S(=O)(=O)C(C)C)c1=O)c1ccc(F)cc1Cl [Compound 11-66]	80	90	80	90	80	90	90	80	80	90	80	90	90	80	90	80
Cc1ccc(N(C(=O)n2cnn(S(=O)(=O)C(C)C)c2=O)C(C)C)c(F)c1 [Compound 11-73]	80	90	80	90	80	90	90	80	80	90	80	90	90	80	90	80
CC(C)N(C(=O)n1cnn(S(=O)(=O)C(C)C)c1=O)c1ccc(Cl)cn1 [Compound 11-85]	80	90	90	70	90	90	90	80	80	90	80	90	90	60	100	100
CC(C)N(C(=O)n1cnn(S(=O)(=O)C(C)C)c1=O)c1ncc(Cl)cc1Cl [Compound 11-86]	80	90	90	90	90	90	90	80	80	90	80	90	90	80	90	80
CCC(C)S(=O)(=O)n1ncn(C(=O)N(c2ccc(F)cc2F)C(C)C)c1=O (stereo not shown) [Compound 11-93]	80	90	80	90	90	90	90	80	90	90	90	90	90	80	90	80
CC(C)CS(=O)(=O)n1ncn(C(=O)N(c2ccc(F)cc2F)C(C)C)c1=O [Compound 11-94]	90	90	100	90	90	100	50	90	100	90	100	100	80	90	100	100
CC(C)N(C(=O)n1cnn(S(=O)(=O)CCl)c1=O)c1ccc(F)cc1F [Compound 11-109]	40	90	100	90	90	100	40	90	100	90	90	100	90	100	100	100
Cc1ccc(N(C(=O)n2cnn(S(=O)(=O)CCl)c2=O)C(C)C)c(F)c1 [Compound 11-123]	80	90	80	90	80	90	90	80	80	90	80	90	90	80	90	80
